Patent publication US20260374754A1, “N-((ISOQUINOLIN-6-YL)METHYL)-1H-PYRAZOLE-4-CARBOXAMIDE DERIVATIVES AS PLASMA KALLIKREIN INHIBITORS FOR THE TREATMENT OF HEREDITARY ANGIODEMA” (Takeda Pharmaceutical Company Limited, priority 2022, published 2026)

Biological target: human activated kallikrein enzyme (Homo sapiens, UniProt P03952)
Assay: Inhibition of human activated plasma kallikrein, fluorogenic PFR-AMC substrate, 500 pM enzyme format
Type: biochemical
Settings: 500 pM activated kallikrein; 300 μM PFR-AMC; 30 min preincubation; 10 min room temperature; pH 7.5; read-out: Primary Dose Response Assay: Average EC50
Procedure, shortened: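 500 pM activated kallikrein preincubated 30 min at room temperature with inhibitors in pH 7.5 Tris/EDTA/NaCl buffer with PEG-400 and Triton X-100. Reaction started with 300 μM PFR-AMC, run 10 min at room temperature; AMC fluorescence read at ex 380/em 460 nm.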

Chain of human activated kallikrein enzyme (P03952 391-638 limits assumed): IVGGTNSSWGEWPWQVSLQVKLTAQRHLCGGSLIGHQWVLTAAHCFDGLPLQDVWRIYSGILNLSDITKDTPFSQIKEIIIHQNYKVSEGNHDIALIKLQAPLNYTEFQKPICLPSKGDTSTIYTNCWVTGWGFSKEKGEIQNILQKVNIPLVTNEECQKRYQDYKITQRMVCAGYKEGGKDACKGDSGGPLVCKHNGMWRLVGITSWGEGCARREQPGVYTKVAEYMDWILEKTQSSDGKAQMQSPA
Chain of human activated kallikrein enzyme (P03952 20-390 partner limits assumed): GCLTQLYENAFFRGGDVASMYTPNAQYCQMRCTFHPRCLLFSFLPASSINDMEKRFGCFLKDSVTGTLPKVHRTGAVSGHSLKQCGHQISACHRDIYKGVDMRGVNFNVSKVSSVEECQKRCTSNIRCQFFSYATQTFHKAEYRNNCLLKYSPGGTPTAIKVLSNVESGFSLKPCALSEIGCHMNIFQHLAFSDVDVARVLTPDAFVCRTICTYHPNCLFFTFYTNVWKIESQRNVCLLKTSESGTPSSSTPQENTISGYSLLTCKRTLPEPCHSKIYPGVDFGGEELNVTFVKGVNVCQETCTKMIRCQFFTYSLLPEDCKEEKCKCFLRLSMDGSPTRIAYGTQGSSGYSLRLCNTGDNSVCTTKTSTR

Cc1cc2c(N)nccc2c(C)c1CNc1cc(NCc2cn3cc(C4CC4)ccc3n2)cnc1C(=O)O [Example 497, 3-(((1-amino-5,7-dimethylisoquinolin-6-yl)methyl)amino)-5-(((6-cyclopropylimidazo[1,2-a]pyridin-2-yl)methyl)amino)picolinic acid]
EC50: > 1000 nM

Cc1cc2c(N)nccc2c(C)c1CNC(=O)c1cnn(Cc2cccnc2)c1 [Example 88, N-((1-amino-5,7-dimethylisoquinolin-6-yl)methyl)-1-(pyridin-3-ylmethyl)-1H-pyrazole-4-carboxamide]
EC50: 10 to 100 nM

Cc1cc2c(N)nccc2c(C)c1CNc1cc(NCc2ccc(C(F)(F)n3cccn3)cc2)ncn1 [Example 382, N^4-((1-amino-5,7-dimethylisoquinolin-6-yl)methyl)-N^6-(4-(difluoro(1H-pyrazol-1-yl)methyl)benzyl)pyrimidine-4,6-diamine]
EC50: 1 to 10 nM

Cc1cc2c(N)nccc2c(C)c1CNC(=O)c1cnn(Cc2cc3cccc(C)c3nc2Cl)c1 [Example 73, N-((1-amino-5,7-dimethylisoquinolin-6-yl)methyl)-1-((2-chloro-8-methylquinolin-3-yl)methyl)-1H-pyrazole-4-carboxamide]
EC50: 1 to 10 nM

Cc1cc2c(N)nccc2c(C)c1CNC(=O)c1cnn(Cc2cn3cc(C4CC4)c(Cl)cc3n2)c1 [Example 147, N-((1-amino-5,7-dimethylisoquinolin-6-yl)methyl)-1-((7-chloro-6-cyclopropylimidazo[1,2-a]pyridin-2-yl)methyl)-1H-pyrazole-4-carboxamide]
EC50: < 1 nM

COc1cccc2nc(Cn3cc(C(=O)NCc4c(C)cc5c(N)nccc5c4C)cn3)cn12 [Example 144, N-((1-amino-5,7-dimethylisoquinolin-6-yl)methyl)-1-((5-methoxyimidazo[1,2-a]pyridin-2-yl)methyl)-1H-pyrazole-4-carboxamide]
EC50: < 1 nM

Cc1cc2c(N)nccc2c(C)c1CNC(=O)c1cnn(Cc2ccc(Cc3cccn4ccnc34)cc2)c1 [Example 167, N-((1-amino-5,7-dimethylisoquinolin-6-yl)methyl)-1-(4-(imidazo[1,2-a]pyridin-8-ylmethyl)benzyl)-1H-pyrazole-4-carboxamide]
EC50: < 1 nM

Cc1cc2c(N)nccc2c(C)c1CNC(=O)c1cnn(Cc2nc3ccccc3n2C(C)C)c1 [Example 71, N-((1-amino-5,7-dimethylisoquinolin-6-yl)methyl)-1-((1-isopropyl-1H-benzo[d]imidazol-2-yl)methyl)-1H-pyrazole-4-carboxamide]
EC50: 100 to 1000 nM

Cc1c(CNC(=O)c2cnn(Cc3ccccc3)c2)c(C2(C)CC2)cc2c(N)nccc12 [Example 175, N-((1-amino-5-methy1-7-(1-methylcyclopropyl)isoquinolin-6-y1)methyl)-1-benzyl-1H-pyrazole-4-carboxamide]
EC50: 10 to 100 nM

Cc1cc2c(N)nccc2c(C)c1CNc1ncnc2[nH]c(Cc3ccc4ccccc4c3)cc12 [Example 540, 5,7-dimethyl-6-(((6-(naphthalen-2-ylmethyl)-7H-pyrrolo[2,3-d]pyrimidin-4-yl)amino)methyl)isoquinolin-1-amine]
EC50: 10 to 100 nM

Cc1cc2c(N)nccc2c(C)c1CNC(=O)c1cnn(Cc2ccc(CC(=O)NCc3ccccc3)cc2)c1 [Example 229, N-((1-amino-5,7-dimethylisoquinolin-6-yl)methyl)-1-(4-(2-(benzylamino)-2-oxoethyl)benzyl)-1H-pyrazole-4-carboxamide]
EC50: 10 to 100 nM

Cc1cc2c(N)nccc2c(C)c1CNc1cc(NCc2ccc(Cc3ccccn3)cc2)ncn1 [Example 363, N^4-((1-amino-5,7-dimethylisoquinolin-6-yl)methyl)-N^6-(4-(pyridin-2-ylmethyl)benzyl)pyrimidine-4,6-diamine]
EC50: < 1 nM

Cc1cc2c(N)nccc2c(C)c1CNC(=O)c1cnn([C@@H](C)c2ccccc2)c1 [Example 34, (S)-N-((1-amino-5,7-dimethylisoquinolin-6-yl)methyl)-1-(1-phenylethyl)-1H-pyrazole-4-carboxamide]
EC50: 100 to 1000 nM
